This data set is described as follows: Hydrolytic stability in buffers of varying pH by HPLC. Format: physicochemical. The settings on record: room temperature. The procedure:
To assess the relative stability of the thiolactone and homoserine lactone moieties, stability studies were performed as reported previously,^53 with the following changes. Compounds RN22 and E22 (50 μM) were dissolved in either 1 mM 2-(N-morpholino)-ethanesulfonic acid (MES) buffer at pH 6, or 1 mM tris(hydroxymethyl)-aminomethane (TRIS) buffer at pH 7, pH 8, or pH 9. Solutions were placed static at room temperature, and 150 μL aliquots were taken every two hours for eight hours, then again at 24 hours. Samples were immediately separated via HPLC, and the area under the curve (AUC) at 220 nm was calculated and compared to the area at t=0. […] Degradation of both compounds to the hydrolysis product was confirmed via mass spectrometry of the resulting byproduct peak.
P. aeruginosa media is observed to become more alkaline over time, making the hydrolytic instability of the homoserine lactone head group a concern in developing AHL-type modulators for use in the wild-type organism. […] To evaluate their stability in a more direct assay, the stability of thiolactone RN22 relative to its lactone homolog E22 was monitored over time and at varying pH values using HPLC. The amount of compound RN22 remaining over 24 h was compared to E22. […] Degradation products were confirmed to be the hydrolyzed lactone head groups via mass spectroscopy.

One may read the half-life as the time in which the quantity being followed falls by half. Low readings indicate rapid decline, high ones slow decline.

Consider `O=C(COc1ccc(I)cc1)N[C@H]1CCSC1=O` [RN22], for which the half-life at 50 μM by setting is: (pH 6, 1 mM MES buffer) 44 days; (pH 7, 1 mM TRIS buffer) 47.2 days; (pH 8, 1 mM TRIS buffer) 9.88 days; (pH 9, 1 mM TRIS buffer) 2.18 days.
